Measured values from PubChem BioAssay AID192 (DTP/NCI, 2004).
Values joined by “and” are separate entries in the source; they are usually repeats but may differ in a detail not shown here. Identical values can stand only once. Toxic doses and inconclusive results are not listed. The calls were made as follows: active = survival T/C of 150% or more; inactive = T/C below 125% in these data.

Tested on: BDF1 mice, B16 melanoma ip, median survival T/C
Assay: NCI In Vivo Anticancer Drug Screen. Data for tumor model B16 Melanoma (intraperitoneal) in B6D2F1 (BDF1) mice
Details: endpoint: median survival time, higher = longer survival
Procedure, shortened: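 Read-out: survival or tumor size, given as treated/control ratio. Controls received vehicle only; animals bore transplantable tumors.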

[1] = dose: 25.0 mg/kg/injection, schedule: Q01DX009 (ip), vehicle: saline
[2] = dose: 50.0 mg/kg/injection, schedule: Q01DX009 (ip), vehicle: saline
[3] = dose: 50.0 mg/kg/injection, schedule: Q01DX009 (ip), vehicle: saline with Tween-80
[4] = dose: 100.0 mg/kg/injection, schedule: Q01DX009 (ip), vehicle: saline with Tween-80
[5] = dose: 200.0 mg/kg/injection, schedule: Q01DX009 (ip), vehicle: saline with Tween-80
[6] = dose: 25.0 mg/kg/injection, schedule: Q01DX009 (ip), vehicle: Klucel (hydroxypropylcellulose) (HPC)
[7] = dose: 50.0 mg/kg/injection, schedule: Q01DX009 (ip), vehicle: Klucel (hydroxypropylcellulose) (HPC)
[8] = dose: 25.0 mg/kg/injection, schedule: Q01DX009 (ip), vehicle: saline with Tween-80
[9] = dose: 100.0 mg/kg/injection, schedule: Q01DX009 (ip), vehicle: Klucel (hydroxypropylcellulose) (HPC)

Measured: T/C

CCCCCCCCCOCCOCCOCCN
inactive: dose: 12.5 mg/kg/injection, schedule: Q04DX003 (ip), vehicle: Klucel (hydroxypropylcellulose) (HPC) 98 % of control | dose: 25.0 mg/kg/injection, schedule: Q04DX003 (ip), vehicle: Klucel (hydroxypropylcellulose) (HPC) 90 % of control

CC(N)C(=O)NC(C(=O)O)C(C)O (stereo unspecified)
inactive: [1] 92 % of control | [2] 100 % of control | dose: 100.0 mg/kg/injection, schedule: Q01DX009 (ip), vehicle: saline 97 % of control | dose: 200.0 mg/kg/injection, schedule: Q01DX009 (ip), vehicle: saline 102 % of control | dose: 400.0 mg/kg/injection, schedule: Q01DX009 (ip), vehicle: saline 105 % of control

COC1/C=C\C=C(/C)C(=O)Nc2cc3nc4cccc(Br)c4oc-3c(c2=O)CC(C)CC(OC)C(O)C(C)/C=C(\C)C1OC(N)=O (stereo unspecified)
inactive: dose: 12.5 mg/kg/injection, schedule: Q01DX005 (ip), vehicle: other 103 % of control | dose: 25.0 mg/kg/injection, schedule: Q01DX005 (ip), vehicle: other 98 % of control | dose: 50.0 mg/kg/injection, schedule: Q01DX005 (ip), vehicle: other 108 % of control | dose: 100.0 mg/kg/injection, schedule: Q01DX005 (ip), vehicle: other 107 % of control | dose: 200.0 mg/kg/injection, schedule: Q01DX005 (ip), vehicle: other 94 % of control

COc1cc2c3cc1Oc1c(O)c(OC)cc4c1[C@H](Cc1ccc(cc1)Oc1cc(ccc1O)C[C@H]3N(C)CC2)N(C)CC4
inactive: dose: 10.0 mg/kg/injection, schedule: Q01DX009 (ip), vehicle: water 108 % of control | dose: 20.0 mg/kg/injection, schedule: Q01DX009 (ip), vehicle: water 114 % of control | dose: 40.0 mg/kg/injection, schedule: Q01DX009 (ip), vehicle: water 102 % of control and 113 % of control | [3] 118 % of control | dose: 75.0 mg/kg/injection, schedule: Q01DX009 (ip), vehicle: saline with Tween-80 112 % of control | dose: 80.0 mg/kg/injection, schedule: Q01DX009 (ip), vehicle: water 88 % of control and 114 % of control | [4] 118 % of control | dose: 150.0 mg/kg/injection, schedule: Q01DX009 (ip), vehicle: saline with Tween-80 119 % of control

CC(=O)NNC(=O)c1cnccn1
inactive: dose: 22.5 mg/kg/injection, schedule: Q01DX009 (ip), vehicle: saline 97 % of control | dose: 45.0 mg/kg/injection, schedule: Q01DX009 (ip), vehicle: saline 97 % of control | dose: 90.0 mg/kg/injection, schedule: Q01DX009 (ip), vehicle: saline 90 % of control

COc1cc2c(c(OC)c1OC)-c1ccc(OC)c(=O)cc1[C@@H](N)CC2
inactive: dose: 0.31 mg/kg/injection, schedule: Q01DX009 (ip), vehicle: saline 120 % of control | dose: 2.5 mg/kg/injection, schedule: Q01DX009 (ip), vehicle: Klucel (hydroxypropylcellulose) (HPC) 89 % of control | dose: 5.0 mg/kg/injection, schedule: Q01DX009 (ip), vehicle: Klucel (hydroxypropylcellulose) (HPC) 110 % of control

CC(=O)Nc1ccc(N=Nc2c(O)c(S(=O)(=O)O)cc3cc(S(=O)(=O)O)ccc23)cc1
inactive: [5] 100 % of control

C/C(CCC(=O)O)=N\NC(N)=O
inactive: [4] 88 % of control | [5] 88 % of control | dose: 400.0 mg/kg/injection, schedule: Q01DX009 (ip), vehicle: saline with Tween-80 100 % of control

c1ccc(CN2CCNCC2)cc1
inactive: dose: 6.25 mg/kg/injection, schedule: Q01DX009 (ip), vehicle: saline 108 % of control | dose: 12.5 mg/kg/injection, schedule: Q01DX009 (ip), vehicle: saline 108 % of control | [1] 106 % of control

O=C(SCC(NSc1ccccc1[N+](=O)[O-])C(=O)O)c1ccccc1 (stereo unspecified)
inactive: dose: 50.0 mg/kg/injection, schedule: Q04DX003 (ip), vehicle: Klucel (hydroxypropylcellulose) (HPC) 113 % of control | dose: 100.0 mg/kg/injection, schedule: Q04DX003 (ip), vehicle: Klucel (hydroxypropylcellulose) (HPC) 100 % of control | dose: 200.0 mg/kg/injection, schedule: Q04DX003 (ip), vehicle: Klucel (hydroxypropylcellulose) (HPC) 94 % of control

COC1C(CO)OC(n2cnc3c(=S)nc(N)[nH]c32)C1O (stereo unspecified)
inactive: dose: 12.5 mg/kg/injection, schedule: Q01DX009 (ip), vehicle: Klucel (hydroxypropylcellulose) (HPC) 112 % of control | [6] 103 % of control | [7] 108 % of control

CCC[CH2][Sn]1([CH2]CCC)[N](S(=O)(=O)c2ccc(C)cc2)c2ccccc2[N]1S(=O)(=O)c1ccc(C)cc1
inactive: dose: 1.5 mg/kg/injection, schedule: Q01DX009 (ip), vehicle: Klucel (hydroxypropylcellulose) (HPC) 87 % of control | dose: 3.0 mg/kg/injection, schedule: Q01DX009 (ip), vehicle: Klucel (hydroxypropylcellulose) (HPC) 102 % of control

C=CCOP(=O)(N1CC1C)N1CC1C (stereo unspecified)
inactive: [1] 95 % of control | [2] 96 % of control | dose: 50.0 mg/kg/injection, schedule: Q04DX003 (ip), vehicle: saline 97 % of control | dose: 100.0 mg/kg/injection, schedule: Q04DX003 (ip), vehicle: saline 105 % of control

O=C1CCCNc2ccccc21
inactive: dose: 25.0 mg/kg/injection, schedule: Q04DX003 (ip), vehicle: saline with Tween-80 100 % of control | dose: 50.0 mg/kg/injection, schedule: Q04DX003 (ip), vehicle: saline with Tween-80 102 % of control | dose: 75.0 mg/kg/injection, schedule: Q04DX003 (ip), vehicle: saline with Tween-80 114 % of control | dose: 100.0 mg/kg/injection, schedule: Q04DX003 (ip), vehicle: saline with Tween-80 101 % of control | dose: 200.0 mg/kg/injection, schedule: Q04DX003 (ip), vehicle: saline with Tween-80 103 % of control | dose: 400.0 mg/kg/injection, schedule: Q04DX003 (ip), vehicle: saline with Tween-80 90 % of control

O=CN(c1ccccc1)c1ccccc1
inactive: dose: 50.0 mg/kg/injection, schedule: Q01DX009 (ip), vehicle: other 100 % of control | dose: 100.0 mg/kg/injection, schedule: Q01DX009 (ip), vehicle: other 100 % of control | dose: 200.0 mg/kg/injection, schedule: Q01DX009 (ip), vehicle: other 105 % of control | dose: 400.0 mg/kg/injection, schedule: Q01DX009 (ip), vehicle: other 97 % of control

CC(=O)SCCCCl
inactive: [3] 108 % of control | [4] 112 % of control | [5] 97 % of control

CCCCOc1ccc(NC(N)=Nc2ccc(Cl)cc2)cc1
inactive: dose: 3.12 mg/kg/injection, schedule: Q01DX009 (ip), vehicle: saline with Tween-80 95 % of control | dose: 6.25 mg/kg/injection, schedule: Q01DX009 (ip), vehicle: saline with Tween-80 88 % of control | dose: 12.5 mg/kg/injection, schedule: Q01DX009 (ip), vehicle: saline with Tween-80 90 % of control | [8] 86 % of control

C=C1CCN(c2ccccc2)C1=O
inactive: dose: 4.0 mg/kg/injection, schedule: Q01DX009 (ip), vehicle: saline + alcohol 96 % of control | dose: 8.0 mg/kg/injection, schedule: Q01DX009 (ip), vehicle: saline + alcohol 116 % of control | dose: 16.0 mg/kg/injection, schedule: Q01DX009 (ip), vehicle: saline + alcohol 112 % of control | dose: 64.0 mg/kg/injection, schedule: Q01DX009 (ip), vehicle: saline + alcohol 107 % of control

Cc1ccc(NC(=O)CCl)cc1Cl
inactive: [8] 97 % of control | [3] 102 % of control | [4] 101 % of control

NCCCCS(=O)(=O)Nc1ccc(Nc2c3ccccc3nc3cc([N+](=O)[O-])ccc23)cc1
inactive: dose: 50.0 mg/kg/injection, schedule: Q01DX001 (ip), vehicle: saline sonified 97 % of control | dose: 100.0 mg/kg/injection, schedule: Q01DX001 (ip), vehicle: saline sonified 105 % of control | dose: 200.0 mg/kg/injection, schedule: Q01DX001 (ip), vehicle: saline sonified 113 % of control

COc1ccc(CCNC(=S)NCCc2ccc(OC)c(OC)c2)cc1OC
inactive: [9] 86 % of control | dose: 200.0 mg/kg/injection, schedule: Q01DX009 (ip), vehicle: Klucel (hydroxypropylcellulose) (HPC) 92 % of control | dose: 400.0 mg/kg/injection, schedule: Q01DX009 (ip), vehicle: Klucel (hydroxypropylcellulose) (HPC) 115 % of control

Oc1ccc(Br)cc1-c1nc2cc(Cl)c(Cl)cc2nc1-c1cc(Br)ccc1O
inactive: [6] 87 % of control | [7] 86 % of control | [9] 91 % of control and 94 % of control

COc1cccc(CC(C)[N+](=O)[O-])c1 (stereo unspecified)
inactive: dose: 45.0 mg/kg/injection, schedule: Q01DX009 (ip), vehicle: saline with Tween-80 109 % of control | dose: 90.0 mg/kg/injection, schedule: Q01DX009 (ip), vehicle: saline with Tween-80 100 % of control | dose: 180.0 mg/kg/injection, schedule: Q01DX009 (ip), vehicle: saline with Tween-80 86 % of control
